Experiments:
[1] = molecular target: T1, Human DNA polymerase γ (Homo sapiens, UniProt P54098); test: DNA polymerase assay, human pol γ; format: biochemical
T1 construct: His tag; made in house; host or cells: baculovirus expression system (insect cells)
T1 sequence (P54098 1-1239): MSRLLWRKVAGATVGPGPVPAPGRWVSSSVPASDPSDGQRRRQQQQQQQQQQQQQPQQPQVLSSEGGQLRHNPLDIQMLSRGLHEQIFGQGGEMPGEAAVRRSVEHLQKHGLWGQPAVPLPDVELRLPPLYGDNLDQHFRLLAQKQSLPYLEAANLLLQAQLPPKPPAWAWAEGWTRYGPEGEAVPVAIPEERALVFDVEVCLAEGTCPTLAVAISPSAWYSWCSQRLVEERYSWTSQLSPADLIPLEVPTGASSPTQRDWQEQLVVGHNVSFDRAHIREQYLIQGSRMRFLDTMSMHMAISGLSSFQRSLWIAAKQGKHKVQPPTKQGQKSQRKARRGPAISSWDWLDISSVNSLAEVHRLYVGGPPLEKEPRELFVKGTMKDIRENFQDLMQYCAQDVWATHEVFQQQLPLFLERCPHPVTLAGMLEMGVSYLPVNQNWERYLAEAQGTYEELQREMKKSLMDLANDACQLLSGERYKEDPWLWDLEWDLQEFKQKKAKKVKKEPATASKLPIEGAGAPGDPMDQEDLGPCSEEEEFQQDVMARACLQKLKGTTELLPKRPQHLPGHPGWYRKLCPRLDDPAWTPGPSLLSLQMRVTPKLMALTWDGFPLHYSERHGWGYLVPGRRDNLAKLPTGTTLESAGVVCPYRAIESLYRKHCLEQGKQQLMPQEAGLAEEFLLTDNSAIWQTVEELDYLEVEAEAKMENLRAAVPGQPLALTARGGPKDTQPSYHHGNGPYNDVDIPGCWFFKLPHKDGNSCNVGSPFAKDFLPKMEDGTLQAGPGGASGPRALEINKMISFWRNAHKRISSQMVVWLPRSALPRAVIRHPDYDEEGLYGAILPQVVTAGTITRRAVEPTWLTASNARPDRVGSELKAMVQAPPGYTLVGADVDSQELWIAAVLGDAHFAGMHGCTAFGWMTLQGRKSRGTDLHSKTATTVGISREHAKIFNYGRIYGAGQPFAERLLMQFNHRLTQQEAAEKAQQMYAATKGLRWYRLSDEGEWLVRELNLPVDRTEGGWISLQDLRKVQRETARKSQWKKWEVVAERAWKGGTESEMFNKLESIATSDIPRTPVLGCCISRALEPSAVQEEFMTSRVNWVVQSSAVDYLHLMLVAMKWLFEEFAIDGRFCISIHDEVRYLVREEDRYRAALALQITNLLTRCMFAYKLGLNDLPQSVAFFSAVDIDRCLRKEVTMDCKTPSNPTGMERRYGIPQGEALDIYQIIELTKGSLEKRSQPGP
From the text: Pol α was purified from calf thymus by immuno-affinity column chromatography as described by Tamai et al.. Recombinant rat pol β was purified from E. coli JMpβ5 as described by Date et al.. The human pol γ catalytic gene was cloned into pFastBac. Histidine-tagged enzyme was expressed using the BAC-TO-BAC HT Baculovirus Expression System according to the supplier's manual (LIFE TECHNOLOGIES, MD, USA) and purified using ProBoundresin (Invitrogen Japan, Tokyo, Japan). Human pols δ and ε were purified by the nuclear fractionation of human peripheral blood cancer cells (Molt-4) using the second subunit of pols δ and ε-conjugated affinity column chromatography, respectively. Recombinant human pols η and ι tagged with His6 at their C-terminal were expressed in SF9 insect cells using the baculovirus expression system, and were purified as described previously. A truncated form of pol κ (i.e., hDINB1DC) with 6 x His-tags attached at the C-terminal was overproduced using the BAC-to-BAC Baculovirus Expression System kit (GIBCO BRL, MD, USA) and purified as described previously. […]
For pols, poly(dA)/oligo(dT)12-18 (A/T = 2/1) and dTTP were used as the DNA template-primer and nucleotide (i.e., dNTP) substrate, respectively. […] Activity without the inhibitor was considered 100%, and the remaining activity at each concentration of the inhibitor was determined relative to this value. […]

[2] = system: HL-60 cells; test: HL-60 cancer cell growth, MTT assay; format: cell-based, human; settings: 50 μM, 24 hr
Description: To investigate the effects of KA-A derivatives in cultured cells, we used a human cancer cell line, HL-60, human promyelocytic leukemia cells (IFO 050022), supplied by the Health Science Research Resources Bank (Osaka, Japan). The cells were routinely cultured in RPMI 1640 medium supplemented with 10% fetal bovine serum, 100 μg/mL streptomycin, 100 unit/mL penicillin, and 1.6 mg/mL NaHCO3. The cells were cultured at 37 °C in standard medium in a humidified atmosphere of 5% CO2-95% air. The rate of the cancer cell growth of the compound was investigated as follows: high concentrations (10 mM) of the compounds were dissolved in DMSO and stocked. Approximately 1 x 10^4 cells per well were inoculated in 96-well micro plates, and then the compound stock solution was diluted to various concentrations, and applied to each well. After incubation for 24 hr, the survival rate was determined by MTT (3-(4,5-dimethylthiazol-2-yl)-2,5-diphenyl tetrazolium bromide) assay.

SMILES: CC1=CC[C@H]2C(C)(C)CCC[C@]2(C)[C@H]1CCCCCCCCCCCCCCCCC(=O)O (relative stereo) [compound 11, (1S*,4aS*,8aS*)-17-(1,4,4a,5,6,7,8,8a-octahydro-2,5,5,8a-tetramethylnaphthalen-1-yl)heptadecanoic acid]
- IC50 [1]: 8.76 ± 0.44 µM
- Growth inhibitory effect on HL-60 cells, rank among compounds tested [2]: strongest growth inhibitory effect

From article PMC6253949, “The Inhibitory Action of Kohamaic Acid A Derivatives on Mammalian DNA Polymerase β” (Molecules, 2008)
